Data on one molecule can be found in patent publication US8815912B2, “Wound and mucosa antiseptic based on bispyridiniumalkanes” (L'Air Liquide Société Anonyme pour l'Etude et …, priority 2009, dated 2014).

The data set can be described thus: Stability of solutions rendered isotonic (290 mOsmol/kg). The class given is physicochemical. The settings on record: 0.10% octenidine, dihydrochloride. The text has this: To investigate the stability, aqueous solutions containing 0.1% by weight of octenidine were in each case rendered isotonic (290 mOsmol/kg).

As for `CCCCCCCCN=c1ccn(CCCCCCCCCCn2ccc(=NCCCCCCCC)cc2)cc1.Cl.Cl` [Octenidine, Octenidine dihydrochloride], the Stability result reads like this: (isotonicity adjusted with 0.85% sodium chloride, listed as octenidine) “not stable”; (isotonicity adjusted with 2.4% glycerol (99.8% strength)) “Stable between +4 °C and +40 °C”; (isotonicity adjusted with 2.4% glycerol (99.8% strength), listed as octenidine) “stable”; (isotonicity adjusted with 99.9% Ringer's solution, listed as octenidine) “not stable”.
